Literature values, collected in patent US11052154B2, “Ras protein degradation inducing molecule and pharmaceutical composition” (Tokyo University of Science Foundation, priority 2016, dated 2021).

Experiments:
β2i = β2i (Homo sapiens, UniProt P40306); conditions: Table 18, 20S immunoproteasome inhibitor; cited from earlier work
β5i = β5i (Homo sapiens, UniProt P28062); conditions: Table 18, 20S immunoproteasome inhibitor; cited from earlier work

Compound	Others: immunoproteasome subunit inhibited (β2i) (β2i)	Others: immunoproteasome subunit inhibited (β5i) (β5i)
CCCC[C@@H](C=O)NC(=O)[C@H](CC(C)C)NC(=O)OCc1ccccc1 [IPSI-001]	β2i is inhibited	–
COc1ccc(C[C@H](NC(=O)[C@H](C)NC(=O)CN2CCOCC2)C(=O)N[C@@H](Cc2ccccc2)C(=O)[C@@]2(C)CO2)cc1 [PR-957]	–	β5i is inhibited
